This note sets out measurements from patent US10774110B2, “Rapadocins, inhibitors of equilibrative nucleoside transporter 1 and uses thereof” (The Johns Hopkins University, priority 2016, dated 2020).

Each structure is given as a SMILES string. Like-named read-outs stand apart in the source and are kept apart here.

The target in series [1] is T1, ENT1 (Homo sapiens, UniProt P62942+Q99808). The experiment in a line: 3H-Thymidine uptake, potency of Rapadocin analogs (Table 2). In kind it is cell-based. On the set-up: endogenous in cells. The text has this: (§1) Rapadocin is a synthetic macrocycle composed of two ‘domains’—a FKBD (FKBP12 binding domain) and a peptide domain. […] The peptidic fragment can tolerate a range of modifications with varying effects on ENT1 inhibition.
Table 2 discloses the potency of various Rapadocin analogs.
Target sequence in this assay (Q99808 2-456 limits assumed): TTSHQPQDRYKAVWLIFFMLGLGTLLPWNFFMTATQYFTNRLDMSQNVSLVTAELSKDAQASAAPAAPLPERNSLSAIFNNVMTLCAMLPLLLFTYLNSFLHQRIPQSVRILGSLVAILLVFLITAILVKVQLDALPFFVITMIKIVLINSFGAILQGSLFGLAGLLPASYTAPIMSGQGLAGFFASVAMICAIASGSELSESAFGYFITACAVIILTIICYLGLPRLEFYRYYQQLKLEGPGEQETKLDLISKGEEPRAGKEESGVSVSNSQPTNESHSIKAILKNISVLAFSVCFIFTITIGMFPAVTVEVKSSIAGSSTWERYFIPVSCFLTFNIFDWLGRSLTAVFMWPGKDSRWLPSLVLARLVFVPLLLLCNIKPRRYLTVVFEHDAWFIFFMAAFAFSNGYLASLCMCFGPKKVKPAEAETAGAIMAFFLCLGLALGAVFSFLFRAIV
Target sequence in this assay (P62942 2-108 limits assumed): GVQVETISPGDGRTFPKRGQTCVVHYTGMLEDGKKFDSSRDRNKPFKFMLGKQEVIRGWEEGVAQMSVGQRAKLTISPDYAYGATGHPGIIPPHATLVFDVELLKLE

The test system of the next series is HUVEC. The experiment in a line: 3H-Thymidine uptake in HUVEC. The class given is cell-based, human. The text has this: FIG. 2. Rapadocin inhibits ^3H-Thymidine uptake in Human Umbilical Vein Endothelial Cells (HUVEC).
(§2) uptake in at least seven cell lines and is predicted to inhibit nucleoside uptake in all human cell lines (see e.g., FIG. 2 and Table 1).

A further series has as its system 293T. In words: 3H-Thymidine uptake in 293T. The class given is cell-based, human.
Text: as §2

The next series concerns RKO. The experiment in a line: 3H-Thymidine uptake in RKO. In kind it is cell-based, human.
Text: as §2

For a further series, the system named is A549. The experiment in a line: 3H-Thymidine uptake in A549. The class given is cell-based, human.
Text: as §2

The next series concerns HeLa. The experiment in a line: 3H-Thymidine uptake in HeLa. In kind it is cell-based, human.
Text: as §2

The subject of another series is MCF-7. The experiment in a line: 3H-Thymidine uptake in MCF-7. The class given is cell-based, human.
Text: as §2

The next series concerns MDA MB-231. In words: 3H-Thymidine uptake in MDA MB-231. The class given is cell-based, human.
Text: as §2

The target of series [2] is T1, ENT1. In words: 3H-Adenosine / nucleoside uptake by hENT1 (vs hENT2). The class given is cell-based. The text has this: FIG. 1. Rapadocin inhibits ^3H-Adenosine uptake by specifically inhibiting hENT1.
Rapadocin inhibits nucleoside
Target sequence in this assay (Q99808 whole entry, the tested form may be a part): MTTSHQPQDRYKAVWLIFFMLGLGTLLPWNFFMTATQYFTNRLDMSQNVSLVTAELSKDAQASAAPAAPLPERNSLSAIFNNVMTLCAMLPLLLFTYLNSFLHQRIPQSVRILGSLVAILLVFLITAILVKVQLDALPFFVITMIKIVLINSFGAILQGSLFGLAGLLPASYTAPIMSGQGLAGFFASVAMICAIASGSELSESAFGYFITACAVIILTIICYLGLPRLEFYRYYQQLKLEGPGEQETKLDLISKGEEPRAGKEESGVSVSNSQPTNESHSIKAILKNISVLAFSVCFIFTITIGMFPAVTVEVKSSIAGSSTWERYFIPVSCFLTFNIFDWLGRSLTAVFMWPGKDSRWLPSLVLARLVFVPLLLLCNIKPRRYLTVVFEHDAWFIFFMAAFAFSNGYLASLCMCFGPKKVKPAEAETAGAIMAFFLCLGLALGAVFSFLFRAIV
Target sequence in this assay (P62942 2-108 limits assumed): as the sequence (P62942 2-108 limits assumed) above

The next series addresses T2, FKBP12 (Homo sapiens, UniProt P62942).
T2 construct: endogenous in cells
The experiment in a line: Antagonism of uptake inhibition by FKBP12-binders. In kind it is cell-based. Conditions: FIG. 3. The text has this:
FIG. 3. Rapadocin's uptake inhibition is antagonized by FKBP12-binders Rapamycin and FK506.

The test system of series [3] is platelet aggregation in human blood. In words: Platelet aggregation in human blood activated by ADP. The class given is cell-based. The conditions noted are these: FIG. 4. The text has this:
(§3) Two human and animal models have been studied to show the efficacy of Rapadocin (FIGS. 4 and 5). Under several physiological conditions, adenosine is released into the blood where it can act on adenosine receptors. Normally, this adenosine (ADO) is rapidly reabsorbed via ENT1. In the presence of Rapadocin, uptake is inhibited and ADO is able to produce enhanced signaling leading to several potentially beneficial physiological responses.

Series [4] concerns kidney ischemia reperfusion injury. The experiment in a line: Kidney ischemia reperfusion injury mouse model. In kind it is in vivo.
Text: as §1, §3

Series [5] is described as follows: Solubility in aqueous solutions. The class given is physicochemical.
A short description of series [6]: Stability in cell culture media. The class given is physicochemical. The conditions noted are these: 5 days, 37° C., 10% Fetal Bovine Serum.

T2 sequence (P62942 whole entry): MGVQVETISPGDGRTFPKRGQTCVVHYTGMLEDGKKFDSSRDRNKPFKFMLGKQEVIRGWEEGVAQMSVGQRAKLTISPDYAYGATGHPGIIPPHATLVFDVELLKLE

Turning to `c1ccc2sccc2c1` [Analog 95-15-8], on ENT1 [1] (cells printed with uM, read-out: EC50 3H-Tymidine uptake), the EC50 (usually the concentration needed to bring the measured effect to its halfway point) was above 1 µM.
Consider `COc1ccc(CC[C@H]2OC(=O)[C@@H]3CCCCN3C(=O)C(=O)C(C)(C)COC(=O)C=CCCN(C)C(=O)[C@H](CC(C)C)N(C)C(=O)[C@@H]3CCCN3C(=O)[C@H](Cc3ccc(OCC(=O)NCCOCCOCCNC(=O)CCCCC4SCC5NC(=O)NC54)cc3)NC(=O)[C@H](c3ccccc3)NC(=O)CCC(=O)Nc3cccc2c3)cc1OC` (some centres unmarked) [JW95TyrBiotin], for which the EC50 on ENT1 [1] was determined as 0.064 µM.
`C#CCCC1(CCOc2ccc(C[C@@H]3NC(=O)[C@H](c4ccccc4)NC(=O)CCC(=O)Nc4cccc(c4)[C@@H](CCc4ccc(OC)c(OC)c4)OC(=O)C4CCCCN4C(=O)C(=O)C(C)(C)COC(=O)C=CCCN(C)C(=O)[C@H](CC(C)C)N(C)C(=O)[C@@H]4CCCN4C3=O)cc2)N=N1` (some centres unmarked) [JW95TyrDiaz] gave an EC50 at ENT1 [1] of 0.02 µM.
With `COc1ccc(CC[C@H]2OC(=O)[C@@H]3CCCCN3C(=O)C(=O)C(C)(C)COC(=O)/C=C/CCN(C)C(=O)[C@H](CC(C)C)N(C)C(=O)[C@H]3CCCN3C(=O)[C@H](Cc3ccccc3)N(C)C(=O)[C@H](c3ccccc3)NC(=O)CCC(=O)Nc3cccc2c3)cc1OC` [Rapadocin], the EC50 in the series on HUVEC stood at 6.4 nM; in the series on 293T it was 5 nM; in the series on RKO it was 11.4 nM; in the series on A549, 6.3 nM; in the series with HeLa, 16.3 nM; with MCF-7, 9 nM. For the same compound, the EC50 with MDA MB-231 stood at 41.1 nM; at ENT1 [1], 0.00616 µM. Also, in the series on HUVEC (FIG. 2), the 3H-Thymidine uptake inhibition entry was “inhibits”. Also, on ENT1 [2] (FIG. 1, by specifically inhibiting hENT1), the 3H-Adenosine uptake inhibition entry is “inhibits”. On ENT1 [2] (selectivity hENT1 over hENT2, FIG. 1), the “inhibition of nucleoside uptake by hENT1 over hENT2” value was “potently and specifically inhibits”. The “uptake inhibition in presence of FKBP12-binders Rapamycin and FK506” value on FKBP12 is “antagonized”. The platelet aggregation result in [3] was “inhibits platelet aggregation”. For the same compound, the tolerability in animals result in series [4] (kidney ischemia model) was “safely tolerated”. Moreover, the “protection against kidney ischemia reperfusion injury” value in series [4] (mouse model, FIG. 5) is on record as “protects against kidney ischemia reperfusion injury”. Further, the solubility (as a rule, the dissolved amount per volume that the medium holds) in series [5] is at most 10 µM. Also, in [6], the resistance to degradation result is “resist degradation over 5 days”.
